Measured values taken from ChEMBL document CHEMBL3045712, “Insect antifeedant and growth regulating activities of salannobutyrolactone and desacetylsalannobutyrolactone” (2005).

Key:
Type in all cases: functional
[1] = system: Spodoptera litura; test: Insecticidal activity against third-instar larval stage of Spodoptera litura fed on compound-treated castor leaves assessed as pupal mortality at 5 ug/cm2 (reference value: 4.17%)
[2] = system: Spodoptera litura; test: Insecticidal activity against third-instar larval stage of Spodoptera litura fed on compound-treated castor leaves assessed as total larval duration time at 10 ug/cm2 (reference value: 12.7 +/- 0.89 days)
[3] = system: Spodoptera litura; test: Insecticidal activity against third-instar larval stage of Spodoptera litura fed on compound-treated castor leaves assessed as larval mortality at 5 ug/cm2 (reference value: 4%)
[4] = system: Spodoptera litura; test: Antifeedant activity against third-instar larval stage of Spodoptera litura fed on compound-treated castor leaves assessed as feeding deterrence index at 10 ug/cm2 by dual choice leaf disc method
[5] = system: Spodoptera litura; test: Insecticidal activity against third-instar larval stage of Spodoptera litura fed on compound-treated castor leaves assessed as larval mortality at 10 ug/cm2 (reference value: 4%)
[6] = system: Spodoptera litura; test: Insecticidal activity against third-instar larval stage of Spodoptera litura fed on compound-treated castor leaves assessed as pupal duration time at 10 ug/cm2 (reference value: 8.1 +/- 0.14 days)
[7] = system: Spodoptera litura; test: Insecticidal activity against third-instar larval stage of Spodoptera litura fed on compound-treated castor leaves assessed as pupal mortality at 10 ug/cm2 (reference value: 4.17%)
[8] = system: Spodoptera litura; test: Insecticidal activity against third-instar larval stage of Spodoptera litura fed on compound-treated castor leaves assessed as total larval duration time at 5 ug/cm2 (reference value: 12.7 +/- 0.89 days)
[9] = system: Spodoptera litura; test: Insecticidal activity against third-instar larval stage of Spodoptera litura fed on compound-treated castor leaves assessed as pupal duration time at 5 ug/cm2 (reference value: 8.1 +/- 0.14 days)
[10] = system: Spodoptera litura; test: Antifeedant activity against third-instar larval stage of Spodoptera litura fed on compound-treated castor leaves assessed as feeding deterrence index at 5 ug/cm2 by dual choice leaf disc method

SMILES | mortality at 5 µg/cm2 [1] | Time [2] | mortality at 5 µg/cm2 [3] | FDI [4] | mortality at 10 µg/cm2 [5] | Time [6] | mortality at 10 µg/cm2 [7] | Time [8] | Time [9] | FDI [10]
C/C=C(\C)C(=O)O[C@H]1C[C@@H](O)[C@@]2(C)CO[C@H]3[C@H]4O[C@@H]5C[C@@H](C6=CCOC6=O)C(C)=C5[C@@]4(C)[C@H](CC(=O)OC)[C@]1(C)[C@@H]32 [DESACETYLSALANNOBUTYROLACTONE] | 27.3% | 14.4 days | 24% | 47.97% | 40% | 8.6 days | 33.3% | 13.1 days | 8.41 days | 50.45%
C/C=C(\C)C(=O)O[C@H]1C[C@@H](OC(C)=O)[C@@]2(C)CO[C@H]3[C@H]4O[C@@H]5C[C@@H](C6=CCOC6=O)C(C)=C5[C@@]4(C)[C@H](CC(=O)OC)[C@]1(C)[C@@H]32 [SALANNOBUTYROLACTONE] | 30.2% | 15.5 days | 32% | 36.69% | 52% | 9.4 days | 37.2% | 14 days | 8.7 days | 39.34%
C/C=C(\C)C(=O)O[C@H]1C[C@@H](OC(C)=O)[C@@]2(C(=O)OC)CO[C@H]3[C@@H](O)[C@@](C)([C@]45O[C@@]4(C)[C@@H]4C[C@H]5O[C@@H]5OC=C[C@@]54O)[C@H]4[C@]1(CO[C@]4(O)C(=O)OC)[C@@H]32 [AZADIRACHTIN A] | 33.2% | 16.3 days |  | 12.59% | 64% | 10.14 days | 40% | 15 days | 9.8 days | 15.62%
